According to ChEMBL document CHEMBL1134867, “Synthesis and initial structure-activity relationships of a novel series of imidazolo[1,2-a]pyrimid-5-ones as potent GnRH receptor antagonists” (Bioorg Med Chem Lett, 2002):

test system: not listed separately; assay: Oral bioavailability in rat; assay type: ADME, organism-based; details: in vivo

`CC[C@H]1OC(=O)[C@H](C)[C@@H](OC(=O)N2C(=O)OC[C@@H]2C)[C@H](C)[C@@H](O[C@@H]2O[C@H](C)C[C@H](N(C)CC3CC3)[C@H]2O)[C@@](C)(OC)C[C@@H](C)C(=O)[C@H](C)[C@H]2N(CCc3ccc(Cl)c(Cl)c3)C(=O)O[C@]12C` gave a bioavailability of 15.2%.

biological target: T1, Gonadotropin-releasing hormone receptor (Homo sapiens, UniProt P30968); assay: Ability of compound to inhibit [125I-Tyr5,DLeu6,NMeLeu7,Pro9-NEt]GnRH agonist binding to the cloned human Gonadotropin-releasing hormone receptor was evaluated; details: not given
T1 sequence (P30968 whole entry): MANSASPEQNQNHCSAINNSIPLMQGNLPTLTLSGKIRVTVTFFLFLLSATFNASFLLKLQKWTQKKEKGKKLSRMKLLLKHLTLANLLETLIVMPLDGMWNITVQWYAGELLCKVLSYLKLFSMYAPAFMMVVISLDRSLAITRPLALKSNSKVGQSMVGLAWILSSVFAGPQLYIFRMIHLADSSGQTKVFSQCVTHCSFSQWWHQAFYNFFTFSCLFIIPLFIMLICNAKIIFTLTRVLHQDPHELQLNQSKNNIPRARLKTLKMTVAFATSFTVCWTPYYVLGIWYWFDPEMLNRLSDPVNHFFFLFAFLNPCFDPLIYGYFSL

For `CC[C@H]1OC(=O)[C@H](C)[C@@H](OC(=O)N2C(=O)OC[C@@H]2C)[C@H](C)[C@@H](O[C@@H]2O[C@H](C)C[C@H](N(C)CC3CC3)[C@H]2O)[C@@](C)(OC)C[C@@H](C)C(=O)[C@H](C)[C@H]2N(CCc3ccc(Cl)c(Cl)c3)C(=O)O[C@]12C`, the Ki was 0.002 µM.

In the case of `Cc1cc(-c2c(O)nc3cc(Cl)c(C(=O)Nc4ncccn4)cc3c2OCC[C@@H]2CCN2)cc(C)c1C`, the IC50 is reported as 0.00044 µM.

biological target: T2, Gonadotropin-releasing hormone receptor (Rattus norvegicus, UniProt P30969); assay: Ability of compound to inhibit [125I-Tyr5,DLeu6,NMeLeu7,Pro9-NEt]GnRH agonist binding to the rat Gonadotropin-releasing hormone receptor was evaluated; details: not given
T2 sequence (P30969 whole entry): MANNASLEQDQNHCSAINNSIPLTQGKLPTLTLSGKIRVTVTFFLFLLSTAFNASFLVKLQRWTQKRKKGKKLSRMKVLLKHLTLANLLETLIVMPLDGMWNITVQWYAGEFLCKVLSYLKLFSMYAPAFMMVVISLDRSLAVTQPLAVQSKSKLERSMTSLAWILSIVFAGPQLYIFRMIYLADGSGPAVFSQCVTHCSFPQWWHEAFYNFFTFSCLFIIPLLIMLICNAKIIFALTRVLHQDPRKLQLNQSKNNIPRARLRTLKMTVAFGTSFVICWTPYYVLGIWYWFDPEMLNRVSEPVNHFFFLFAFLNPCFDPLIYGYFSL

In the case of `CC[C@H]1OC(=O)[C@H](C)[C@@H](OC(=O)N2C(=O)OC[C@@H]2C)[C@H](C)[C@@H](O[C@@H]2O[C@H](C)C[C@H](N(C)CC3CC3)[C@H]2O)[C@@](C)(OC)C[C@@H](C)C(=O)[C@H](C)[C@H]2N(CCc3ccc(Cl)c(Cl)c3)C(=O)O[C@]12C`, the Ki is reported as 0.000631 µM.

For `Cc1cc(-c2c(O)nc3cc(Cl)c(C(=O)Nc4ncccn4)cc3c2OCC[C@@H]2CCN2)cc(C)c1C`, the IC50 was 0.004 µM.

biological target: T1, Gonadotropin-releasing hormone receptor; assay: Ability to inhibit [125I-Tyr5,DLeu6,NMeLeu7,Pro9-NEt]GnRH agonist binding to the cloned human Gonadotropin-releasing hormone receptor was evaluated; details: not given

Point of comparison: `CCCC(=O)Nc1ccc(-c2nc3n(Cc4ccccc4F)cc(C(=O)OC(CC)CC)c(=O)n3c2CN(C)CCc2ccccc2)cc1`, Ki 0.014 µM. Against it:
- CCCC(=O)Nc1ccc(-c2cn3c(=O)c(C(=O)OCC)cn(Cc4ccccc4F)c3n2)cc1 — 2100-fold higher, 30 µM
- CCC(CC)OC(=O)c1cn(Cc2ccccc2F)c2nc(-c3ccc(NC(=O)C(C)C)cc3)c(CN(C)Cc3ccccc3)n2c1=O — 2.9-fold higher, 0.041 µM
- CCCC(=O)Nc1ccc(-c2nc3n(Cc4ccccc4F)cc(C(=O)OC(CC)CC)c(=O)n3c2CN(C)CCc2ccccn2)cc1 — 1.9-fold lower, 0.0075 µM
- CCCC(=O)Nc1ccc(-c2nc3n(Cc4ccccc4F)cc(C(=O)OC(CC)CC)c(=O)n3c2CN(C)CCOC)cc1 — 2.6-fold higher, 0.036 µM
- CCCC(=O)Nc1ccc(-c2nc3n(Cc4ccccc4F)cc(C(=O)OC(CC)CC)c(=O)n3c2CN(C)Cc2cccnc2)cc1 — 3.7-fold higher, 0.052 µM
- CCCC(=O)Nc1ccc(-c2nc3n(Cc4ccccc4F)cc(C(=O)OC(CC)CC)c(=O)n3c2CN2CCc3ccccc3C2)cc1 — 21-fold higher, 0.29 µM
- CCCC(=O)Nc1ccc(-c2nc3n(Cc4ccccc4F)cc(C(=O)OCC)c(=O)n3c2CN(C)Cc2ccccc2)cc1 — 5.7-fold higher, 0.08 µM
- CCOC(=O)c1cn(Cc2ccccc2F)c2nc(-c3ccc(OC)cc3)c(CN(C)Cc3ccccc3)n2c1=O — 68-fold higher, 0.95 µM
- CCCC(=O)Nc1ccc(-c2cn3c(=O)c(C(=O)OC(CC)CC)cn(Cc4ccccc4F)c3n2)cc1 — 2000-fold higher, 28 µM
- CCCC(=O)Nc1ccc(-c2nc3n(Cc4ccccc4F)cc(C(=O)OC(CC)CC)c(=O)n3c2CN2CCCC2)cc1 — 160-fold higher, 2.2 µM
- CCCC(=O)Nc1ccc(-c2nc3n(Cc4ccccc4F)cc(C(=O)OC(CC)CC)c(=O)n3c2CN(C)CC#N)cc1 — 21-fold higher, 0.3 µM
- CCOC(=O)c1cn(Cc2ccccc2F)c2nc(-c3ccc(OC)cc3)c(CN(C)CCc3ccccn3)n2c1=O — 16-fold higher, 0.23 µM
- CCCC(=O)Nc1ccc(-c2nc3n(Cc4ccccc4F)cc(C(=O)OCC)c(=O)n3c2CN(C)CCc2ccccn2)cc1 — within 1.5-fold, 0.012 µM
- CCCC(=O)Nc1ccc(-c2nc3n(Cc4ccccc4F)cc(C(=O)OC(CC)CC)c(=O)n3c2CN(C)Cc2ccco2)cc1 — 2.1-fold higher, 0.029 µM
